Source: paper PMC11035696, “Prospective de novo drug design with deep interactome learning” (Nature Communications, 2024)
Where “and” joins values, the source holds several entries; their conditions need not be identical. Equal values may be shown once.

Tests used:
[1] = biological target: ACETYLCHOLINESTERASE (Homo sapiens, UniProt P22303); assay: Safety off-target panel, enzymatic; type: biochemical; conditions: single point
Source text: (§1) Table S9-S12 list all targets, their species, inhibition (%) and assay type for the experiments conducted in the
(§2) off-targets. […] The numbers for mean
(§3) inhibition (%) represent single point measurements.
(§4) off-targets. […] The numbers for
(§5) mean inhibition (%) represent single point measurements.

[2] = biological target: ABL1 (Homo sapiens, UniProt P00519); assay: Safety off-target panel, enzymatic; type: biochemical; conditions: single point
ABL1, sequence (P00519 whole entry): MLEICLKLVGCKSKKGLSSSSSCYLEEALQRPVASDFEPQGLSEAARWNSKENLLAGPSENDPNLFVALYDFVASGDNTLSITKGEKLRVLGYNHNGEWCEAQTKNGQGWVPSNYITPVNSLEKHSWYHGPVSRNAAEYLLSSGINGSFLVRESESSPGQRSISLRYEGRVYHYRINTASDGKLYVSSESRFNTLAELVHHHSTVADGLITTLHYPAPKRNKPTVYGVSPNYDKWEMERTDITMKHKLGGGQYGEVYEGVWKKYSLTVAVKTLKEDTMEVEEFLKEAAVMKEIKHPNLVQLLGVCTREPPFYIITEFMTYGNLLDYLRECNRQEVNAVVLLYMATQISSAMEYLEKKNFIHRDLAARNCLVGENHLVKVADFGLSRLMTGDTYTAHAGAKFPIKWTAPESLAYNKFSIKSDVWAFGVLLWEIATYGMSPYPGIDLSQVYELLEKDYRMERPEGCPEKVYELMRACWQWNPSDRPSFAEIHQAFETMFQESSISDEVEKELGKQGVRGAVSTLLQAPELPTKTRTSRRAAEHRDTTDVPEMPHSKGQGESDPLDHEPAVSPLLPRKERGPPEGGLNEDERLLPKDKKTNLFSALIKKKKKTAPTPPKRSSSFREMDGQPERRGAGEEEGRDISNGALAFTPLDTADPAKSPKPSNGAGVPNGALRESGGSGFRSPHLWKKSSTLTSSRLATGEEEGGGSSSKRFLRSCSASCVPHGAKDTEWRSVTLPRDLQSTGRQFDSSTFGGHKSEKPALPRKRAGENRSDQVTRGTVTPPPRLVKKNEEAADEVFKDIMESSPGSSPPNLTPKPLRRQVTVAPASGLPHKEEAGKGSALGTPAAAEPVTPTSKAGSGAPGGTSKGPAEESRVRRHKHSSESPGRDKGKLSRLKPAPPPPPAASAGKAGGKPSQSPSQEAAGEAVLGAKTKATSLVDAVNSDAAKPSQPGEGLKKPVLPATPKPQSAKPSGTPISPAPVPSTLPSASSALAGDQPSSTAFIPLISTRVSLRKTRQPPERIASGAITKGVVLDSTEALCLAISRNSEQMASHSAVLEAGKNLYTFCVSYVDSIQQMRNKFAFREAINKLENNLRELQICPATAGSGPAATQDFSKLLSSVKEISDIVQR
Source text: as §1, §2, §3, §4, §5

[3] = biological target: CYCLO OXYGENASE 2 (Homo sapiens, UniProt P35354); assay: Safety off-target panel, enzymatic; type: biochemical; conditions: single point
CYCLO OXYGENASE 2, sequence (P35354 18-604): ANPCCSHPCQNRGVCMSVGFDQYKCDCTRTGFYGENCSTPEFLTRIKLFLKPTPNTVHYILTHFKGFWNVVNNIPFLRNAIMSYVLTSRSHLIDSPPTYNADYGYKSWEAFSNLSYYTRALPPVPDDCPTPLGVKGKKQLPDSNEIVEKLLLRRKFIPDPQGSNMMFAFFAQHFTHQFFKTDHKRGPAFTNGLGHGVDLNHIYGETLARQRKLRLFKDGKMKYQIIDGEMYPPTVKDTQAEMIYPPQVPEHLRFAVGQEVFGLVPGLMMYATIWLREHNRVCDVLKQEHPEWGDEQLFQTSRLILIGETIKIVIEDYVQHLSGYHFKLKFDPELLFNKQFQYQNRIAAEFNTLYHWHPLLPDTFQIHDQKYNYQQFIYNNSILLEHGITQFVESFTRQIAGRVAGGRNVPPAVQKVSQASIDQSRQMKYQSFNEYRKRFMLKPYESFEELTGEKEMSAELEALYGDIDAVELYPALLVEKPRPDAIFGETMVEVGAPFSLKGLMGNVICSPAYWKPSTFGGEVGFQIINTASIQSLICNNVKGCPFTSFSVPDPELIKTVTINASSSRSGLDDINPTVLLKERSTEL
Source text: as §1, §2, §3, §4, §5

[4] = biological target: PHOSPHODIESTERASE 3B (Homo sapiens, UniProt Q13370); assay: Safety off-target panel, enzymatic; type: biochemical; conditions: single point
Source text: as §1, §2, §3, §4, §5

[5] = tested on: HIV-1 PROTEASE; assay: Safety off-target panel, enzymatic; type: biochemical; conditions: 10 µM, single point
Source text: as §1, §2, §3, §4, §5

[6] = biological target: MONOAMINE OXIDASE-A (Homo sapiens, UniProt P21397); assay: Safety off-target panel, enzymatic; type: biochemical; conditions: single point
MONOAMINE OXIDASE-A, sequence (P21397 whole entry): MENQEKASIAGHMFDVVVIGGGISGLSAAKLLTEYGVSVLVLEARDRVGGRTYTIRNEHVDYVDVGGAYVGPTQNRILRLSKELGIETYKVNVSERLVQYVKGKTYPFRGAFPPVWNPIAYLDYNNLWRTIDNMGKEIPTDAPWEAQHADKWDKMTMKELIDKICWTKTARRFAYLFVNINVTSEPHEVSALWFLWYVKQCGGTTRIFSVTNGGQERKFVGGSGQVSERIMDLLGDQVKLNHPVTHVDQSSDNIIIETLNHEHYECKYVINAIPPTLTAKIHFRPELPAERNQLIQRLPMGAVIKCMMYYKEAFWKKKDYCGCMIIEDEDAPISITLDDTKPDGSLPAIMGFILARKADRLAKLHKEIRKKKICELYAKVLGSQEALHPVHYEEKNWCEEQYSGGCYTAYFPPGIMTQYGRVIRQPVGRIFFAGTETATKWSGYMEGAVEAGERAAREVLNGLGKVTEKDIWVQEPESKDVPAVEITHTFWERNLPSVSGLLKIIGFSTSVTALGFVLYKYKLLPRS
Source text: as §1, §2, §3, §4, §5

[7] = biological target: GSK-3B (Homo sapiens, UniProt P49841); assay: Safety off-target panel, enzymatic; type: biochemical; conditions: single point
Source text: as §1, §2, §3, §4, §5

[8] = biological target: ANGIOTENSIN CONVERTING ENZYME (Homo sapiens, UniProt P12821); assay: Safety off-target panel, enzymatic; type: biochemical; conditions: single point
ANGIOTENSIN CONVERTING ENZYME, sequence (P12821 30-1306): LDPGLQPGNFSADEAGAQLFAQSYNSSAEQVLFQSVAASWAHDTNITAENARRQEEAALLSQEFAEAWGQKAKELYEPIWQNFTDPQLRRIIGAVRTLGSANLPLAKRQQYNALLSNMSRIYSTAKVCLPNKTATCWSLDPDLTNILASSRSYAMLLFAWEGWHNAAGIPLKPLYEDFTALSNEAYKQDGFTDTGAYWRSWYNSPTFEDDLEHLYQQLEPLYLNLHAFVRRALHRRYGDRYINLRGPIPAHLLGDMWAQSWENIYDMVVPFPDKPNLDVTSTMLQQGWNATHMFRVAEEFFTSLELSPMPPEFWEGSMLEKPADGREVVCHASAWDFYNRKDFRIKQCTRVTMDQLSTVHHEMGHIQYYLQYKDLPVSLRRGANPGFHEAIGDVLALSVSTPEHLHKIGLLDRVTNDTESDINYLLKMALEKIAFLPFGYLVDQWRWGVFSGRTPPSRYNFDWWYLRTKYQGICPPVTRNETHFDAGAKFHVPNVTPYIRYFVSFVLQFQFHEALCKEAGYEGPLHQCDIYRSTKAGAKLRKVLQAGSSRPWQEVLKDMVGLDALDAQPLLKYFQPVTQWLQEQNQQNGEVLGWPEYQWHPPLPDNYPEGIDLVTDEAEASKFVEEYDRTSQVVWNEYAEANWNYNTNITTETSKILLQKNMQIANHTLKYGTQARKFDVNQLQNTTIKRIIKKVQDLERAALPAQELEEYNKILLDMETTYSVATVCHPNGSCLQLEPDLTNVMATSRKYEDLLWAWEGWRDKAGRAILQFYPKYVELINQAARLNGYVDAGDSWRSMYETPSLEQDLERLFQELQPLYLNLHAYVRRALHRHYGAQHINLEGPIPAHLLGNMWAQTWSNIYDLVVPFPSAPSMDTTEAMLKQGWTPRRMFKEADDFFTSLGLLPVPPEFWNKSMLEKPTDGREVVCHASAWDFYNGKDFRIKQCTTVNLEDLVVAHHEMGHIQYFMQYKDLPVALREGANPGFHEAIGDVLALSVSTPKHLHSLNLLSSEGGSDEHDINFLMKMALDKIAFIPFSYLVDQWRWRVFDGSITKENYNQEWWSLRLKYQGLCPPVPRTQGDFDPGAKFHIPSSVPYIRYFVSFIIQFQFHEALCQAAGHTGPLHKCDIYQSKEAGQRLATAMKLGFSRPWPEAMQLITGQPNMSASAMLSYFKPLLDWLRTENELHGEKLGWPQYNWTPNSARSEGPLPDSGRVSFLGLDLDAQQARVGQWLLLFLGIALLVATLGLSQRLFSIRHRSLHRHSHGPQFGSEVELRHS
Source text: as §1, §2, §3, §4, §5

[9] = biological target: T1, retinoid X receptor (RXR)α (Homo sapiens, UniProt P19793); assay: Nuclear receptor selectivity profiling, hybrid reporter gene assay, RXRα; type: cell-based
T1 construct: RXRα (pFA-CMV-h RXRα-LBD[105], 1 μM Bexarotene); expressed in transfected cells; host or cells: HEK293T
T1 sequence (P19793 227-458 limits assumed): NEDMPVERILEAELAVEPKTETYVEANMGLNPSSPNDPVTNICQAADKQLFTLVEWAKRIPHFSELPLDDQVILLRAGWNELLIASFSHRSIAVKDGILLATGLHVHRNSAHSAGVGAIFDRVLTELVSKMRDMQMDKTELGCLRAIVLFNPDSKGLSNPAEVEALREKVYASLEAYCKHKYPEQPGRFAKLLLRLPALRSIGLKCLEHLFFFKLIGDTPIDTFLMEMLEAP
Method: Compounds 1–3 were characterized in a hybrid reporter gene assay for their agoniztic effect on human nuclear receptors PPARα/γ/δ, RXRα, FXRα, RARα in HEK293T cells. Compound 1 was tested in an isothermal titration calorimetry (ITC) assay to measure direct binding affinity to the ligand-binding domain of PPARγ. ADME properties were measured in standardized assays at Roche.
PPAR activation was determined in uniform Gal4-hybrid reporter gene assays for the PPARα, PPARγ and PPARδ isoforms in HEK293T cells (German Collection of Microorganisms and Cell Culture GmbH, DSMZ) which were transiently transfected with pFR-Luc (Stratagene, La Jolla, CA, USA; reporter) and pRL-SV40 (Promega, Madison, WI, USA; internal control) and one pFA-CMV-hPPAR-LBD[97] clone, coding for the hinge region and ligand binding domain of the canonical isoform of human PPARα, PPARγ, PPARδ or respectively. Cells were cultured in Dulbecco’s modified Eagle’s medium (DMEM), high glucose supplemented with 10% fetal calf serum (FCS), sodium pyruvate (1 mM), penicillin (100 U ⋅ ml^-1), and streptomycin (100 μg ⋅ ml^-1) at 37 °C and 5% CO2 and seeded in 96-well plates (3 × 10^4 cells per well). After 24 h, medium was changed to Opti-MEM without supplements and cells were transiently transfected using Lipofectamine LTX reagent (Invitrogen) according to the manufacturer’s protocol. Five hours after transfection, cells were incubated with the test compounds in Opti-MEM supplemented with penicillin (100 U ⋅ ml^-1), streptomycin (100 μg ⋅ ml^-1) and 0.1% DMSO for 16 h before luciferase activity was measured using the Dual-Glo Luciferase Assay System (Promega) according to the manufacturer’s protocol on a Tecan Spark luminometer (Tecan Deutschland GmbH, Germany). Firefly luminescence was divided by Renilla luminescence and multiplied by 1000 resulting in relative light units (RLU) to normalize for transfection efficiency and cell growth. Fold activation was obtained by dividing the mean RLU of a test compound by the mean RLU of the untreated control. All samples were tested in at least three biologically independent experiments in duplicates. For dose-response curve fitting and calculation of EC50 values, the equation “[Agonist] versus response (variable slope—four parameters)” was used in GraphPad Prism (version 7.00, GraphPad Software, La Jolla, CA, USA) with fold activation data. The reference agonizts GW7647 (PPARα)[98],[99], pioglitazone (PPARγ)[100],[101] and L165,041 (PPARδ)[102],[103] were used to validate the assays and to monitor assay performance. Nuclear receptor selectivity profiling was performed with corresponding pFA-CMV-hNR-LBD clones and suitable reference agonizts on RARα (pFA-CMV-hRARα-LBD[104], 1 μM tretinoin), LXRα (pFA-CMV-hLXRα-LBD[104], 1 μM TO901317) and RXRα (pFA-CMV-h RXRα-LBD[105], 1 μM Bexarotene).

[10] = biological target: CYP2C8 (Homo sapiens, UniProt P10632); assay: CYP inhibition dose-response; type: in vitro ADME; conditions: substrate AMODIAQUINE
CYP2C8, sequence (P10632 whole entry): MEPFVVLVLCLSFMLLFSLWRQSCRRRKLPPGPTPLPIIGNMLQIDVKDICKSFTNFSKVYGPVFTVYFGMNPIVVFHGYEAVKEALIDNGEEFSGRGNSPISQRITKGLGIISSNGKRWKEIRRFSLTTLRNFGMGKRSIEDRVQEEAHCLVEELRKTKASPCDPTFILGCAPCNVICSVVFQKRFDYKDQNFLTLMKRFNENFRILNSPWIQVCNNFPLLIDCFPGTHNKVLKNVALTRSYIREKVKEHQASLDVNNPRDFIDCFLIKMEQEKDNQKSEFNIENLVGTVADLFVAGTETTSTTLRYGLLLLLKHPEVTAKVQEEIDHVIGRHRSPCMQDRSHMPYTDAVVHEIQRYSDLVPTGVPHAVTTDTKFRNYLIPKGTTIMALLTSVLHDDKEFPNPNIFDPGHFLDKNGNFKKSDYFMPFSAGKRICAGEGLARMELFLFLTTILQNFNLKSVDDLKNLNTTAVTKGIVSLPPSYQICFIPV
Method: (§6) SI11Absorption Distribution Metabolism and Excretion and Toxicity Data
(§7) To assess the drug-like characteristics of the newly designed PPAR modulators, a series of tests were conducted covering various aspects of absorption, distribution, metabolism, and excretion (ADME) properties. Specifically, these assessments included the parallel artificial membrane permeability assay (PAMPA) with permeation co- […]
(§8) efficients ([…]), LogD measurements, microsomal clearance, hepatocyte clearance, P-glycoprotein (Pgp) efflux ratio and binding and the unbound free fraction. Furthermore, the evaluation of inhibition po-tential against cytochrome P450 isoenzymes (CYP) proteins was investigated. For seven selected CYP proteins (i.e., Cyp3A4, Cyp1A2, Cyp2B6, Cyp2C9, Cyp2D6, Cyp2C19, and Cyp2C8) the half maximal inhibitory con-centration (IC50) was determined. (Table S15). […]
(§9) activity in the CYP assays was found.
(§10) Table S14: Absorption distribution metabolism and excretion (ADME) properties of compounds 1 and 2. […]
(§11) The values for microsomal clearance and CYP-inhibition represent single point measurements. […]
(§12) Molecule Enzyme Substrate IC50 (µM)

[11] = biological target: CYP3A4 (Homo sapiens, UniProt P08684); assay: CYP inhibition dose-response; type: in vitro ADME; conditions: substrate MIDAZOLAM
CYP3A4, sequence (P08684 whole entry): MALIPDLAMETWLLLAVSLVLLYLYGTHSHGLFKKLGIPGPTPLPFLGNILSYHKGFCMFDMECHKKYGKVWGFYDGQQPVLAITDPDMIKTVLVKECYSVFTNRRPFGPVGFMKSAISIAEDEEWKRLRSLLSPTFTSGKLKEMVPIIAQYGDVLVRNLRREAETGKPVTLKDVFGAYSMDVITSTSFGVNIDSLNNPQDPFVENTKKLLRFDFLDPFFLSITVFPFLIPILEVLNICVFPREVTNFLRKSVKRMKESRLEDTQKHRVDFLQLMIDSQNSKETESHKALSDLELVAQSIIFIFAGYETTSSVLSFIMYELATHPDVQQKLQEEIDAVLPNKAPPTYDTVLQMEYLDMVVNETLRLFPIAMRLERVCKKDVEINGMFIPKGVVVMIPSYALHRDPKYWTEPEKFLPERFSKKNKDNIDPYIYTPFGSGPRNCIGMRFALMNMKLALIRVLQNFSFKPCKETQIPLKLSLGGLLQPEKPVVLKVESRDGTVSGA
Method: as §6, §7, §8, §9, §10, §11, §12

[12] = biological target: CYP2D6 (Homo sapiens, UniProt P10635); assay: CYP inhibition dose-response; type: in vitro ADME; conditions: substrate DEXTROMETHORPHAN
CYP2D6, sequence (P10635 whole entry): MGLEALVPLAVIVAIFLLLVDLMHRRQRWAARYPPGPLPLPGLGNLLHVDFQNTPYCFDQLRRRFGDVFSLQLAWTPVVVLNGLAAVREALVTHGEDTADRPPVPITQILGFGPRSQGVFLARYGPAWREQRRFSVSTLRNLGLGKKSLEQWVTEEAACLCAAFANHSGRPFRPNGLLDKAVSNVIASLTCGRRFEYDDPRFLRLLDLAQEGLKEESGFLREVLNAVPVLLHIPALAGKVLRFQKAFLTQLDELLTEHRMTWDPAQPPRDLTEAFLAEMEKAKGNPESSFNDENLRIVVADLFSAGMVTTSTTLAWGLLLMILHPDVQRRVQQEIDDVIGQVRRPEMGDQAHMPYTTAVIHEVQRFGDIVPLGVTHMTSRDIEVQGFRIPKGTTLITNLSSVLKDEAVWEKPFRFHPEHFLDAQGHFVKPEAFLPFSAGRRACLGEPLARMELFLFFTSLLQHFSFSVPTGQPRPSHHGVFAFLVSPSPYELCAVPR
Method: as §6, §7, §8, §9, §10, §11, §12

[13] = biological target: CYP2C9 (Homo sapiens, UniProt P11712); assay: CYP inhibition dose-response; type: in vitro ADME; conditions: substrate DICLOFENAC
Method: as §6, §7, §8, §9, §10, §11, §12

| SMILES | inhibition at 10 µM [1] [%] | inhibition at 10 µM [2] [%] | inhibition at 10 µM [3] [%] | inhibition at 10 µM [4] [%] | Mean inhibition (%) [5] [%] | inhibition at 10 µM [6] [%] | inhibition at 10 µM [7] [%] | inhibition at 10 µM [8] [%] | RXRα reporter activation, replicate values (DMSO ctrl = 1,000) ([9]; 3 µM) | RXRα reporter activation, replicate values (DMSO ctrl = 1,000) ([9]; 10 µM) | IC50 [10] [µM] | IC50 [11] [µM] | IC50 [12] [µM] | IC50 [13] [µM] |
| --- | --- | --- | --- | --- | --- | --- | --- | --- | --- | --- | --- | --- | --- | --- |
| Cc1nnc(-c2ccc(OCCCOc3ccc(CCC(=O)O)c(F)c3)c(F)c2)s1 [Compound 1] | 0 | 4.4 | -21.7 | 1.4 | 8.2 | 13.3 | 20.2 | -11.6 | 1,140 and 1,672 and 0,965 | 0,945 and 2,262 and 0,954 | > 20 | > 20 | > 20 | > 20 |
| COc1ccc(Oc2ccc3ncn(CCOc4ccc(CCC(=O)O)cc4)c3c2)cc1 [Compound 2] | 2 | -11 | -10.4 | -26.7 | 0.2 | 4.4 | -20.3 | -44.3 | 1,173 and 1,058 and 1,366 | 1,398 and 1,193 and 1,167 | 1.75 | > 20 | > 20 | > 20 |
